In patent US20170333560A1, “Pharmaceutical Composition That Includes A Neutral Carrier Treated With Energy And Related Methods Of Treatment” (priority 2016, published 2017):

Columns and labels:
male albino Wistar rats [1] = test: Porsolt forced swimming test; format: in vivo, rat; details: compared to controls; single intragastric dose
Protocol: (§1) A study was conducted to evaluate the antidepressant effect of the claimed drug, formulated as a water solution (liquid dosage form) of the activated (potentized) energy-treated carrier, obtained by multiple consecutive dilution of the initial matrix solution in an aqueous-alcoholic diluent, combined with external mechanical impact—shaking of each resulting dilution, to a degree of 100^200, equivalent to a centesimal (C200) homeopathic dilution (wherein the energy treatment of the initial neutral carrier has been accomplished by exposing it to an electric current caused by a difference of potentials being applied to electrodes placed in the initial liquid carrier and which is proportional in amplitude to an amplified combined, summed up signal, formed by summing the resultant signals—biopotential differences of individual referential derivations recorded in five healthy donors using the internationally recognized 10-20 system, which involves 19 active recording electrodes placed in regular positions all over the scalp and one reference electrode located on the ear-lobe)—further referred to as AP drug, using standard experimental approaches—by examining animals' depression-like behavior (behavioral despair) in the Porsolt forced swimming test and Nomura's model employing forced-rotating-wheel swim test. […]

male albino Wistar rats [2] = test: Nomura forced-rotating-wheel swim test; format: in vivo, rat; details: compared to controls; single intragastric dose; 10 minutes
Protocol: as §1

Q: For `CN(C)CCC=C1c2ccccc2CCc2ccccc21` [reference compound, amitriptyline], which “Reduction of immobility time” value (male albino Wistar rats [1]) is on record?
A: Its value is 56%.

Q: And the “Increase of number of wheel rotations” value (male albino Wistar rats [2])?
A: The value was 67%.
